In US9586900B2, “Pyrrolone or pyrrolidinone melanin concentrating hormone receptor-1 antagonists” (BRISTOL-MYERS SQUIBB COMPANY, priority 2012, dated 2017):

Biological target: human melanin concentrating hormone receptor (MCHR1) (Homo sapiens (Human), UniProt Q99705, A5T/E4Q)
Experiment: Radioligand binding assay for assessment of MCHR1 activity
Settings: membranes of HEK-293 cells expressing mutated (E4Q, A5T) hMCHR1, competition with [Phe13,[125I]Tyr19]-MCH
Description: Radioligand Binding Assay for Assessment of MCHR1 Activity
An in vitro binding assay was used to determine the compound Ki value or ability to antagonize binding of a peptide agonist to the human melanin concentrating hormone receptor (MCHR1). […] Binding experiments were carried out with 0.5-1.0 μg of membrane protein incubated in a total of 0.2 mL in 25 mM HEPES (pH 7.4) with 10 mM MgCl2, 2 mM EGTA, and 0.1% BSA (Binding Buffer) for 90 min. For competition binding assays, reactions were carried out in the presence of with 0.06-0.1 nM [Phe^13, [^125I]Tyr^19]-MCH and increasing concentrations of unlabeled test molecules. […] Filters were dried, 0.05 mL MicroScint 20 was added to each well and radioactivity was subsequently quantified by scintillation counting on a TOPCOUNT® microplate scintillation counter (Packard). Inhibitory constants were determined by nonlinear least squares analysis using a four parameter logistic equation.

Sequence of human melanin concentrating hormone receptor (MCHR1) (Q99705 whole entry E4Q/A5T): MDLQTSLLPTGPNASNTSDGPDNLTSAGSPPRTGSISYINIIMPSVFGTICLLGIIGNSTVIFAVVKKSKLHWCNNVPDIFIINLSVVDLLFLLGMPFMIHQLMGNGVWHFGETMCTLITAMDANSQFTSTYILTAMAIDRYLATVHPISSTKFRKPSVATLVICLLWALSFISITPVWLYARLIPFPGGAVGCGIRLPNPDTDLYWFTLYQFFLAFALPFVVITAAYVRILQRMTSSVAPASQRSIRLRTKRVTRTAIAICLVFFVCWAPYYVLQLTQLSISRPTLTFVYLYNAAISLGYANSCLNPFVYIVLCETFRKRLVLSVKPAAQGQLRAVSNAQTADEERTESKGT

Row | Structure (SMILES) | Ki (Table C) [nM] | other results
1 | Cc1cc(N2CCC(Oc3ccc(C4CC4)cc3)C2=O)ccc1OCCS(C)(=O)=O (stereo not shown) [Example 114] | 7 | 
2 | Cc1cc(N2CC[C@@H](Oc3ccc(-c4ccccc4)cc3)C2=O)ccc1OCCS(C)(=O)=O [Example 105, (R)-3-(Biphenyl-4-yloxy)-1-(3-methyl-4-(2-(methylsulfonyl)ethoxy)phenyl)pyrrolidin-2-one] | 2 | 
3 | COc1cc(N2CC=C(Oc3ccc(C4CC4)cc3)C2=O)ccc1O [Example 120] |  | Ki (Table D): 10 nM
4 | Cc1cc(N2CCC(Oc3ccc(OC(F)(F)F)cc3)C2=O)ccc1OCC[S+](C)[O-] (stereo not shown) [Example 101, 1-(3-Methyl-4-(2-(methylsulfinyl)ethoxy)phenyl)-3-(4-(trifluoromethoxy)phenoxy)pyrrolidin-2-one] | 77 | 
5 | Cc1cc(N2CCC(Oc3ccc(-c4ccncc4)cc3)C2=O)ccc1OCCS(C)(=O)=O (stereo not shown) [Example 113, 1-(3-Methyl-4-(2-(methylsulfonyl)ethoxy)phenyl)-3-(4-(pyridin-4-yl)phenoxy)pyrrolidin-2-one] | 55 | 
6 | COc1cc(N2CC=C(Oc3ccc(C4CC4)cc3)C2=O)ccc1OCC(C)(C)O [Example 116, 3-(4-Cyclopropylphenoxy)-1-(4-(2-hydroxy-2-methylpropoxy)-3-methoxyphenyl)-1H-pyrrol-2(5H)-one] |  | Ki (Table D): 3 nM
7 | Cc1cc(N2CCC(Oc3ccc(-c4ccccc4F)cc3)C2=O)ccc1OCCS(C)(=O)=O (stereo not shown) [Example 107] | 5 | 
8 | Cc1cc(N2CC[C@H](Oc3ccc(-c4ccccc4)cc3)C2=O)ccc1OCCS(C)(=O)=O [Example 106, (S)-3-(Biphenyl-4-yloxy)-1-(3-methyl-4-(2-(methylsulfonyl)ethoxy)phenyl)pyrrolidin-2-one] | 636 | 
9 | COc1cc(N2CC[C@H](Oc3ccc(C(F)(F)F)cc3)C2=O)ccc1OCC(C)(C)O [Example 10, (S)-1-(4-(2-Hydroxy-2-methylpropoxy)-3-methoxyphenyl)-3-(4-(trifluoromethyl)phenoxy)pyrrolidin-2-one] |  | Ki (Table A): 6000 nM
10 | COc1cc(N2CC[C@@H](Oc3ccc(C(F)(F)F)cc3)C2=O)ccc1OCC(C)(C)O [Example 9, (R)-1-(4-(2-Hydroxy-2-methylpropoxy)-3-methoxyphenyl)-3-(4-(trifluoromethyl)phenoxy)pyrrolidin-2-one] |  | Ki (Table A): 23 nM
